Blank lines part the entries; values can stand above or below the molecule they belong to.
How the values were obtained:
[1] = test system: NCI-H226; test: Antitumor activity against human NCI-H226 cells xenografted in BALB/c mouse assessed as tumor growth inhibition at 10 mg/kg/day; assay type: functional; settings: read-out: TGI
[2] = Half-life in mouse; assay type: ADME, organism-based; settings: in vivo
[3] = test system: NCI-H226; test: Antiproliferative activity against human NCI-H226 cells; assay type: functional, cell-based
[4] = Inhibition of TEAD (unknown origin) by YAP reporter assay; set-up: species or system Homo sapiens
[5] = Oral bioavailability in mouse; assay type: ADME, organism-based; settings: in vivo
[6] = test system: NCI-H28; test: Antiproliferative activity against human NCI-H28 cells; assay type: functional, cell-based
[7] = Antiproliferative activity against human NCI-H2373 cells; assay type: functional, cell-based
[8] = test system: NCI-H2052; test: Antiproliferative activity against human NCI-H2052 cells; assay type: functional, cell-based
[9] = Antitumor activity against human NCI-H2373-Tu-P2 cells xenografted in BALB/c mouse assessed as tumor growth inhibition at 3 mg/kg/day; assay type: functional; settings: read-out: TGI
[10] = test system: NCI-H226; test: Antitumor activity against human NCI-H226 cells xenografted in BALB/c mouse assessed as tumor growth inhibition at 3 mg/kg/day; assay type: functional; settings: read-out: TGI
[11] = test system: Detroit 562; test: Antitumor activity against human Detroit 562 cells xenografted in SCID.Bg mouse assessed as tumor growth inhibition at 200 mg/kg, po administered twice daily; assay type: functional; settings: read-out: TGI
[12] = test system: Huh-7; test: Inhibition of tumor sphere formation in human Huh-7 cells; assay type: functional, cell-based
[13] = Antiproliferative activity against human OMM2.3 cells; assay type: functional, cell-based
[14] = Antiproliferative activity against human Mel202 cells; assay type: functional, cell-based
[15] = test system: HCC4006; test: Antiproliferative activity against human HCC4006 cells incubated for 72 hrs by Incucyte FLR live cell analysis; assay type: functional, cell-based; settings: HCC4006, 72 h
[16] = test system: PC-9; test: Antiproliferative activity against human PC-9 cells incubated for 72 hrs by Incucyte FLR live cell analysis; assay type: functional, cell-based; settings: PC-9, 72 h
[17] = Inhibition of YAP/TEAD (unknown origin) activity; set-up: species or system Homo sapiens
[18] = Inhibition of GST-tagged human TEAD1 to human His6-tagged YAP2 protein-protein interaction incubated for 2 hrs by AlphaLisa method
[19] = test system: HCT-116; test: Antiproliferative activity against human HCT-116 cells incubated for 72 hrs; assay type: functional, cell-based; settings: HCT-116, 72 h
[20] = molecular target: Transcriptional enhancer factor TEF-3 (Homo sapiens, UniProt Q15561); test: Inhibition of TEAD4 (unknown origin) autopalmitoylation
Chain of Transcriptional enhancer factor TEF-3 (Q15561 whole entry): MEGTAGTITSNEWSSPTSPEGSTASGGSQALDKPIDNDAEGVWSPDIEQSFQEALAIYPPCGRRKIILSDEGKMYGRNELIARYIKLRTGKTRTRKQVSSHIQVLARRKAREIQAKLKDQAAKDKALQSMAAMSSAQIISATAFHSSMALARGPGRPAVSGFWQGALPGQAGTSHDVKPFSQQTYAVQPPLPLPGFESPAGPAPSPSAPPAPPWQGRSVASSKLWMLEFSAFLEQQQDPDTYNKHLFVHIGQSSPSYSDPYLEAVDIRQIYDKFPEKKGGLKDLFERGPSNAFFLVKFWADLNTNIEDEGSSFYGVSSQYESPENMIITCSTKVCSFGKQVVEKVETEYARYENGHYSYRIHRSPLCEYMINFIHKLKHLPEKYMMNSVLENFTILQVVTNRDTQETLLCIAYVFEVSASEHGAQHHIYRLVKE

[21] = Inhibition of TEAD in HEK293 cells expressing YAP; assay type: cell-based, Homo sapiens
[22] = Inhibition of YAP (unknown origin) to TEAD4 (unknown origin) protein protein interaction; set-up: species or system Homo sapiens

Structure (SMILES): COc1ncc(NS(C)(=O)=O)cc1/C=C/C1CCC(F)(F)CC1
inhibition in vivo at 200 mg/kg [11]: 78%

Structure (SMILES): O=C(CSc1nnc[nH]1)Nc1ccc(C23CC4CC(CC(C4)C2)C3)cc1
IC50 [12]: 720 nM | IC50 [13]: 4.58 µM | IC50 [14]: 4.24 µM

Structure (SMILES): COc1cc(/C=N/N(CCO)C2=NS(=O)(=O)c3ccccc32)ccc1O
IC50 [18]: 25.4 µM

The next lines start with results.

half-life [2]: > 720 min | IC50 [3]: 16.1 nM | IC50 [4]: 10.4 nM | bioavailability [5]: ≥ 75% | IC50 [6]: > 3000 nM | IC50 [8]: 31.6 nM
Structure (SMILES): C[C@H](NC(=O)c1ccc2c(-c3ccc(C(F)(F)F)cc3)cccc2c1)c1ccccn1
inhibition in vivo at 10 mg/kg/day [1]: 104% | IC50 [7]: 25.6 nM

half-life [2]: > 720 min | IC50 [3]: 3.8 nM | IC50 [4]: 1.02 nM | bioavailability [5]: ≥ 75% | IC50 [6]: > 3000 nM
Structure (SMILES): CNS(=O)(=O)c1ccc(Nc2ccc(C(F)(F)F)cc2)c(-c2cn(C)cn2)c1
inhibition in vivo at 3 mg/kg/day [9]: 118% | IC50 [7]: 15.2 nM | inhibition in vivo at 3 mg/kg/day [10]: 106%

IC50 [15]: < 10 µM | IC50 [16]: < 10 µM | IC50 [17]: 800 nM
Structure (SMILES): C=CC(=O)N1CCC(C)(Nc2cccc(C(F)(F)F)c2)C1 (stereo not drawn)

IC50 [19]: 27.9 µM | IC50 [20]: 1300 nM | IC50 [21]: 2100 nM | IC50 [22]: 21.4 µM
Structure (SMILES): CCOc1ccc(CN2CCCC(C(=O)c3cccc(C(F)(F)F)c3)C2)cc1CO (stereo not drawn)
